Patent US11000033B2, “Ketone or oxime compound, and herbicide” (NISSAN CHEMICAL CORPORATION, priority 2014, dated 2021)

Tests used:
Format in all cases: in vivo
Stellaria media = experiment: Test Example 4: herbicidal effect by soil treatment (symbol P); conditions: application herbicide amount 320 g/ha
In short: (§1)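 Seeds were sown in sterilized diluvial soil, covered with about 1.5 cm of soil, and the soil surface was sprayed with a water-diluted emulsion of the compound at a predetermined rate. Plants grew in a greenhouse at 25° C. to 30° C.; effects were scored visually 3 weeks after application.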

rapeseed [1] = experiment: Test Example 5: effect on crop by foliage application, plastic box (symbol g); conditions: 320 g/ha, 3 weeks after application
In short: (§2)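 Greenhouse test at 25° C. to 30° C. Seeds of crops and weeds were spot-sown in boxes of sterilized diluvial soil under roughly 1.5 cm soil cover, then grown for foliage treatment.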

Scirpus juncoides = experiment: Test Example 1: herbicidal activity, application before weed generation in submerged conditions (symbol B); conditions: application herbicide amount 320 g/ha
In short: (§3)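 Scores run 0 to 5 by herbicidal ratio, with 5 meaning 90% or more and 0 meaning 5% or lower, read 3 weeks after treatment. Compound was applied as a diluted emulsion to the water surface of submerged alluvial-soil pots on the day weed seeds were sown.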

[2] = test system: Echinochloa crus-galli var. crus-galli; experiment: Test Example 4: herbicidal effect by soil treatment (symbol H); conditions: application herbicide amount 320 g/ha
In short: as §1

Monochoria vaginalis = experiment: Test Example 1: herbicidal activity, application before weed generation in submerged conditions (symbol C); conditions: application herbicide amount 320 g/ha
In short: as §3

Cyperus difformis = experiment: Test Example 3: herbicidal effect by foliage application, Wagner pot (symbol E); conditions: application herbicide amount 320 g/ha, Table 24
In short: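 Foliar spray of a water-diluted emulsion at a predetermined herbicide amount, applied to 14-day-old plants. Seedlings were raised in flooded alluvial soil (0.1–0.5 cm water) at 25–30 °C in a greenhouse. Injury was rated after 3 weeks against fixed criteria.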

[3] = test system: directly sowed rice plant; experiment: Test Example 3: effect on crop by foliage application, Wagner pot (symbol b); conditions: application herbicide amount 320 g/ha, Table 24
In short: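 Greenhouse culture at 25–30 °C of seeded rice, Cyperus difformis, Leptochloa chinensis and Echinochloa crus-galli var. crus-galli, in alluvial soil held under 0.1–0.5 cm of water in a Wagner pot.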

rapeseed [4] = experiment: Test Example 4: effect on crop by soil treatment (symbol g); conditions: application herbicide amount 320 g/ha
In short: (§4)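 Grown at 25° C. to 30° C. in a greenhouse, the crops came from seed sown spot-wise in sterilized diluvial soil under roughly 1.5 cm of covering soil.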

corn = experiment: Test Example 4: effect on crop by soil treatment (symbol c); conditions: application herbicide amount 320 g/ha
In short: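 Steps: fill box with sterilized diluvial soil; sow seed spot-like; cover with ~1.5 cm soil; grow in greenhouse (25° C. to 30° C.).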

Setaria viridis = experiment: Test Example 5: herbicidal effect by foliage application, plastic box (symbol G); conditions: 320 g/ha, 3 weeks after application
In short: (§5)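 After sowing into sterilized diluvial soil and growing two weeks under glass at 25° C. to 30° C., seedlings receive a uniform foliar spray of diluted emulsion. Damage is judged visually three weeks on.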

Amaranthus retroflexus [5] = experiment: Test Example 5: herbicidal effect by foliage application, plastic box (symbol N); conditions: 320 g/ha, 3 weeks after application
In short: as §5

[6] = test system: Echinochloa oryzacola Vasing.; experiment: Test Example 1: herbicidal activity, application before weed generation in submerged conditions (symbol A); conditions: application herbicide amount 320 g/ha
In short: as §3

beet = experiment: Test Example 5: effect on crop by foliage application, plastic box (symbol f); conditions: 320 g/ha, 3 weeks after application
In short: as §2

[7] = test system: Echinochloa crus-galli var. crus-galli; experiment: Test Example 5: herbicidal effect by foliage application, plastic box (symbol H); conditions: 320 g/ha, 3 weeks after application
In short: as §5

Amaranthus retroflexus [8] = experiment: Test Example 4: herbicidal effect by soil treatment (symbol N); conditions: application herbicide amount 320 g/ha
In short: as §1

rice = experiment: Test Example 4: effect on crop by soil treatment (symbol b); conditions: application herbicide amount 320 g/ha
In short: as §4

| SMILES | P: Stellaria media, herbicidal effect grade (Stellaria media) | g: rapeseed, effect on crop grade (rapeseed [1]) | B (Scirpus juncoides) herbicidal effect grade (Scirpus juncoides) | H: Echinochloa crus-galli var. crus-galli, herbicidal effect grade [2] | C (Monochoria vaginalis) herbicidal effect grade (Monochoria vaginalis) | E herbicidal effect grade (Cyperus difformis) | b (directly sowed rice plant) effect on crop grade [3] | g: rapeseed, effect on crop grade (rapeseed [4]) | c: corn, effect on crop grade (corn) | G: Setaria viridis, herbicidal effect grade (Setaria viridis) | N: Amaranthus retroflexus, herbicidal effect grade (Amaranthus retroflexus [5]) | A (Echinochloa oryzacola Vasing.) herbicidal effect grade [6] | f: beet, effect on crop grade (beet) | H: Echinochloa crus-galli var. crus-galli, herbicidal effect grade [7] | N: Amaranthus retroflexus, herbicidal effect grade (Amaranthus retroflexus [8]) | b: directly sowed rice plant, effect on crop grade (rice) | Herbicidal effect grade, P: Stellaria media (Stellaria media) | Herbicidal effect grade, H: Echinochloa crus-galli var. crus-galli [2] | Effect on crop grade, g: rapeseed (rapeseed [4]) | Effect on crop grade, c: corn (corn) | further results |
| --- | --- | --- | --- | --- | --- | --- | --- | --- | --- | --- | --- | --- | --- | --- | --- | --- | --- | --- | --- | --- | --- |
| CON=C(CC1CC(OC(=O)C(C)(C)C)=C(c2c(C)cc(C)cc2OC)C1=O)C1CC1 (mixture of isomers) [13-006] | 0 (Herbicidal ratio of 5% or lower (almost no effect)) | 4 (Herbicidal ratio of 70% or higher and lower than 90%) | 5 (Herbicidal ratio of 90% or more (almost completely withered)) | 5 (Herbicidal ratio of 90% or more (almost completely withered)) | 4 (Herbicidal ratio of 70% or higher and lower than 90%) | 5 (Herbicidal ratio of 90% or more (almost completely withered)) | 5 (Herbicidal ratio of 90% or more (almost completely withered)) | 3 (Herbicidal ratio of 40% or higher and lower than 70%) | 1 (Herbicidal ratio of 5% or higher and lower than 20%) | 5 (Herbicidal ratio of 90% or more (almost completely withered)) | 3 (Herbicidal ratio of 40% or higher and lower than 70%) | 5 (Herbicidal ratio of 90% or more (almost completely withered)) | 3 (Herbicidal ratio of 40% or higher and lower than 70%) | 5 (Herbicidal ratio of 90% or more (almost completely withered)) | 0 (Herbicidal ratio of 5% or lower (almost no effect)) | 5 (Herbicidal ratio of 90% or more (almost completely withered)) |  |  |  |  |  |
| Cc1cc(Br)cc(C)c1C1=C(O)CC(CC(=O)C(C)C)C1=O (racemic) [10-003] |  | 0 (Herbicidal ratio of 5% or lower (almost no effect)) | 0 (Herbicidal ratio of 5% or lower (almost no effect)) |  | 0 (Herbicidal ratio of 5% or lower (almost no effect)) | 0 (Herbicidal ratio of 5% or lower (almost no effect)) | 5 (Herbicidal ratio of 90% or more (almost completely withered)) |  |  | 5 (Herbicidal ratio of 90% or more (almost completely withered)) | 0 (Herbicidal ratio of 5% or lower (almost no effect)) | 1 (Herbicidal ratio of 5% or higher and lower than 20%) | 0 (Herbicidal ratio of 5% or lower (almost no effect)) | 5 (Herbicidal ratio of 90% or more (almost completely withered)) |  |  | 0 (Herbicidal ratio of 5% or lower (almost no effect)) | 5 (Herbicidal ratio of 90% or more (almost completely withered)) | 0 (Herbicidal ratio of 5% or lower (almost no effect)) | 0 (Herbicidal ratio of 5% or lower (almost no effect)) | Herbicidal effect grade, N: Amaranthus retroflexus (Amaranthus retroflexus [8]): 0 (Herbicidal ratio of 5% or lower (almost no effect)); Effect on crop grade, b: directly sowed rice plant (rice): 4 (Herbicidal ratio of 70% or higher and lower than 90%) |
| Cc1cc(Br)cc(C)c1C1=C(O)CC(CC(=O)C2CC2)C1=O (racemic) [10-004] |  | 4 (Herbicidal ratio of 70% or higher and lower than 90%) | 0 (Herbicidal ratio of 5% or lower (almost no effect)) |  | 0 (Herbicidal ratio of 5% or lower (almost no effect)) | 5 (Herbicidal ratio of 90% or more (almost completely withered)) | 5 (Herbicidal ratio of 90% or more (almost completely withered)) |  |  | 5 (Herbicidal ratio of 90% or more (almost completely withered)) | 0 (Herbicidal ratio of 5% or lower (almost no effect)) | 5 (Herbicidal ratio of 90% or more (almost completely withered)) | 0 (Herbicidal ratio of 5% or lower (almost no effect)) | 5 (Herbicidal ratio of 90% or more (almost completely withered)) |  |  | 0 (Herbicidal ratio of 5% or lower (almost no effect)) | 5 (Herbicidal ratio of 90% or more (almost completely withered)) | 0 (Herbicidal ratio of 5% or lower (almost no effect)) | 5 (Herbicidal ratio of 90% or more (almost completely withered)) | Herbicidal effect grade, N: Amaranthus retroflexus (Amaranthus retroflexus [8]): 0 (Herbicidal ratio of 5% or lower (almost no effect)); Effect on crop grade, b: directly sowed rice plant (rice): 5 (Herbicidal ratio of 90% or more (almost completely withered)) |
| COc1cc(Br)cc(C)c1C1=C(O)CC(CC(=O)C2CC2)C1=O (racemic) [14-001] | 0 (Herbicidal ratio of 5% or lower (almost no effect)) | 4 (Herbicidal ratio of 70% or higher and lower than 90%) | 3 (Herbicidal ratio of 40% or higher and lower than 70%) | 5 (Herbicidal ratio of 90% or more (almost completely withered)) | 3 (Herbicidal ratio of 40% or higher and lower than 70%) | 5 (Herbicidal ratio of 90% or more (almost completely withered)) | 5 (Herbicidal ratio of 90% or more (almost completely withered)) | 0 (Herbicidal ratio of 5% or lower (almost no effect)) | 5 (Herbicidal ratio of 90% or more (almost completely withered)) | 5 (Herbicidal ratio of 90% or more (almost completely withered)) | 0 (Herbicidal ratio of 5% or lower (almost no effect)) | 4 (Herbicidal ratio of 70% or higher and lower than 90%) | 0 (Herbicidal ratio of 5% or lower (almost no effect)) | 5 (Herbicidal ratio of 90% or more (almost completely withered)) | 0 (Herbicidal ratio of 5% or lower (almost no effect)) | 5 (Herbicidal ratio of 90% or more (almost completely withered)) |  |  |  |  |  |
